Reference: US5942534A, “Photodynamic therapy for the treatment of osteoarthritis” (The General Hospital Corporation, priority 1997, dated 1999)
In brackets after ≈: the same amount, converted by molar mass. Where two headings read alike, the source gives them in different places.

Experiments:
Format in all cases: cell-based, calf
chondrocytes [1] = experiment: Fluorescence of photosensitizers in chondrocytes (confocal microscopy)
chondrocytes [2] = experiment: PDT-induced cytotoxicity (MTT cellular viability) in chondrocytes; settings: for toxic response / cellular viability (in words): 1, 5 or 10 J/cm^2 light; for decrease in cellular viability: BPD-MA concentrations exceeding 0.1 μg/ml, 690 nm
Experimental: (§1) Chondrocytes were harvested by established collagenase digestion techniques. Articular cartilage was aseptically dissected from the femoral condyles and patellas of calf knee joints. […] The resulting cell suspensions were filtered through a cell sieve and washed twice with serum free TCM. The cells were resuspended in the same medium containing 5% heat inactivated fetal calf serum (BioWhittaker, Walkerville, Md.) (FCS-TCM) for seeding. Cell number was determined using a hemocytometer. […] Cells were plated at a density of 1.5×10^6 cells/ml into Falcon 96 well cell culture plates (Becton Dickinson Labware, Franklin Lakes, N.J.) for the cytotoxicity and cell proliferation experiments and into Falcon 6 well cell culture plates for the Photosensitizer uptake studies. Chondrocyte cultures were maintained at 37° C. in a 5% CO2 incubator for 1 week prior to initiation of the photosensitization studies.
(§2) Photofrin® (PF) and Benzoporphyrin Derivative (BPD-MA) were obtained from Quadralogic Technologies (Vancouver, Canada). Chlorin e6 (Ce6) and chloroaluminum phthalocyanine (CASP) were obtained from Ciba Geigy (Basel, Switzerland) and Porphyrin Products (Logan, Utah), respectively. All photosensitizers were added to the chondrocytes in the dark 3 hours prior to light exposure. Photosensitizer stock solutions were prepared immediately prior to each experiment; serial dilutions were prepared using FCS-TCM. All irradiations were done at the appropriate excitation wavelengths for each photosensitizer (BPD-MA 690 nm; Ce6 658 nm; CASP 680 nm; PF 624 nm) using light provided by an argon ion pumped dye laser (Coherent, Palo Alto, Calif.). Following light exposure, control and irradiated cells were maintained for 72 hours prior to the assessment of cellular viability and proliferation rates. Cells were examined daily by light microscopy for morphologic changes.
Screening studies of toxicity determined the range of doses and light response for each photosensitizer. These predetermined ranges were used for all of the studies described. […] Dosages greater than 50 μg/ml were considered not clinically relevant and a dose range extending to 50 μg/ml was chosen for these studies.
PDT-induced cytotoxicity was determined 72 hours after irradiation. […] MTT is metabolized via mitochondrial dehydrogenase enzymes to a formazan dye which can be measured spectrophotometrically. Cytotoxicity is expressed as the percentage of formazan produced in cells treated with visible light of different wavelengths and intensities relative to control cells (% control). The data are expressed as the mean ±S.E.M. from triplicate experiments.

MMP2 = experiment: Gelatin zymography, MMP2 after PDT; settings: for reduction of MMP2 production: at the IC50 dose
Experimental: as §1, §2
Aliquots of conditioned medium were mixed with 1 ml of acetone and maintained at -20° C. for 16-20 hours. The aliquots were microcentrifuged at 14,000×g for 15 minutes, the supernatant was removed and the precipitated protein was dried in a vacuum concentrator (Savant, Farmingdale, N.Y.) to remove residual acetone. Conditioned medium samples were mixed with sample buffer (0.4 M Tris pH 6.8, 5% SDS, 20% glycerol, 0.003% bromophenol blue) and applied directly, without boiling or reduction, to 10% acrylamide gels containing 1% gelatin. […] The gels were stained for 1 hour at room temperature in 30% methanol/10% acetic acid containing 0.5% coomassie blue R-250 and destained in the same solution without dye. The gelatinolytic activity of the proteins was evidenced by clear bands against the blue background of the stained gelatin.

articular chondrocytes = experiment: Photosensitizer uptake studies; settings: for relative uptake (in words): at the IC50 concentrations, 3 hour incubation; for IC50 Uptake: uptake at the IC50, 3 hours incubation in the dark
Experimental: as §1
(§3) Articular chondrocytes were maintained in primary culture for five days after plating. Photosensitizer stocks were serially diluted in FCS-TCM and added to triplicate wells. The cells were incubated in the dark for 3 hours. The photosensitizer-containing FCS-TCM was then removed and the cells were rinsed with 1 ml PBS. To digest the extracellular matrix, the cells were then immersed in 1 ml of a solution of 1 mg/ml collagenase and 0.1 mg/ml hyaluronidase in serum-free TCM. The resulting single cell suspensions were transferred to microfuge tubes and were centrifuged at 3.3×g for 5 minutes. The collagenase solution was removed and the cells were rinsed three times with calcium/magnesium-free PBS. Aliquots were taken for cell counting prior to cell lysis with 1 ml 0.1 N NaOH containing 1% SDS. Cell counting was performed by hemocytometer and Coulter counter. Fluorescent spectra of the cell lysates were obtained using a Spex FluoroMax spectrofluorometer (ISA Instruments, Edison, N.J.) at the appropriate excitation/emission wavelengths for each of the four photosensitizers studied. Fluorescence spectra were corrected for background fluorescence. Relative uptake values were obtained by regression analysis of standard curves of known photosensitizer concentrations. […] Values of uptake at the IC50 are shown in fg/cell. Average protein per cell was calculated from the cell counts and protein concentration determined by the Lowry protein assay.

chondrocytes [3] = experiment: Cell proliferation ([^3 H]-thymidine incorporation) after PDT; settings: for effect on cellular proliferation rates (in words): [^3 H]-thymidine incorporation (FIG. 2); for IC50: Bos taurus, Chondrocyte
Experimental: as §1, §2
Cell proliferation was determined by [^3 H]-thymidine incorporation for all chondrocyte cultures 72 hours after drug and/or light exposure. The cell cultures were labeled with 5 μCi/ml [^3 H]-thymidine (35 Ci/mmol) (ICN, Irvine, Calif.) in FCS-TCM. After incubation for 20 hours, the radioactive medium was removed and the cells were rinsed three times with phosphate buffered saline (PBS) to remove unincorporated label. The cells were then lysed with buffer containing 150 mM Tris pH 8.0, 200 mM sodium chloride, 10% triton X-100 and 1% SDS. [^3 H]-thymidine incorporation was determined by liquid scintillation methods and the data are expressed as mean % control ±S.E.M. of samples irradiated without photosensitizer addition.
as §3, with “fg/cell.” for “fg/cell. Average protein per cell was calculated from the cell counts and protein concentration determined by the Lowry protein assay.”

MMP9 = experiment: Gelatin zymography, MMP9 after PDT; settings: at PDT parameter levels non-toxic to chondrocytes
Experimental: Chondrocytes were harvested by established collagenase digestion techniques. Articular cartilage was aseptically dissected from the femoral condyles and patellas of calf knee joints. Condyle surface shavings were finely minced and digested overnight at 37° C. with collagenase 1 mg/ml (Type II; 355 U/mg dry weight (dw)) and hyaluronidase 0.1 mg/ml (1060 USP/NF units/mg dw) (Worthington Biochemicals, Inc., Freehold, N.J.) in Dulbecco's Modified Eagle's Medium (DMEM; Mediatech, Herndon, Va.) supplemented with 20 mM HEPES, 100 U/ml penicillin G, 100 μg/ml ascorbic acid (serum free TCM). The resulting cell suspensions were filtered through a cell sieve and washed twice with serum free TCM. The cells were resuspended in the same medium containing 5% heat inactivated fetal calf serum (BioWhittaker, Walkerville, Md.) (FCS-TCM) for seeding. Cell number was determined using a hemocytometer. Cell viability, which was determined by trypan blue exclusion, was greater than 99% for all preparations. Cells were plated at a density of 1.5×10^6 cells/ml into Falcon 96 well cell culture plates (Becton Dickinson Labware, Franklin Lakes, N.J.) for the cytotoxicity and cell proliferation experiments and into Falcon 6 well cell culture plates for the Photosensitizer uptake studies. […]

[4] = concentration inhibiting [^3 H]-thymidine incorporation by 50%
[5] = CASP parameters tested in zymography studies

## Benzoporphyrin Derivative [BPD-MA]
Chondrocytes [1]
  cellular fluorescence intensity (in words): strongest fluorescence signals
  fluorescence/uptake in differentiated vs dedifferentiated chondrocytes (in words): Fluorescence occurred uniformly in both differentiated and dedifferentiated chondrocytes
  subcellular fluorescence distribution (in words): diffuse cytoplasmic fluorescence for all drug concentrations studied. No nuclear or membrane staining was observed
Chondrocytes [2]
  toxic response / cellular viability (in words): most toxic responses in chondrocyte cultures
Chondrocytes [2]; 1 J/cm^2 light, 72 hours after irradiation
  decrease in cellular viability: 60%
Chondrocytes [2]; 5 or 10 J/cm^2 light, 72 hours after irradiation
  decrease in cellular viability: 80%
MMP2; at a highly toxic dose
  MMP2 production (in words): non-detectable
MMP2
  reduction of MMP2 production: approximately 50%
MMP2; dependence on cell killing
  MMP2 production (in words): MMP2 production decreased as a function of cell killing
Articular chondrocytes
  Photons Absorbed at IC50: 5.86 × 10^6 photons/cell
  relative uptake (in words): lowest relative uptake
  IC50 Uptake: 1.02 fg/cell
Chondrocytes [3]; 72 hours after drug and/or light exposure, light dose not given
  IC50, inhibition of chondrocyte proliferation ([^3 H]-thymidine incorporation): 0.0503 µg/mL
Chondrocytes [3]
  effect on cellular proliferation rates (in words): most toxic effects
Chondrocytes [3]; [4]
  IC50 (Table 2): 0.05 µg/mL

## C=Cc1c(C)c2cc3nc(c(CC(=O)O)c4[nH]c(cc5nc(cc1[nH]2)C(C)=C5CC)c(C)c4C(=O)O)[C@@H](CCC(=O)O)[C@@H]3C [Ce6, Chlorin e6]
MMP9
  MMP9 production (in words): reduced at PDT parameter levels non-toxic to chondrocytes
Chondrocytes [1]
  cellular fluorescence intensity (in words): elevated levels of cytoplasmic fluorescence comparable in intensity and distribution to BPD-MA
Chondrocytes [2]; more than 6 μg/ml Ce6, 5 or 10 J/cm^2 light, 658 nm, 72 hours after irradiation
  decrease in viability: approximately 50%
MMP2; at PDT parameter levels non-toxic to chondrocytes
  MMP2 production (in words): reduced at PDT parameter levels non-toxic to chondrocytes
MMP2; at high drug doses
  MMP production (in words): correspondingly greater decreases in MMP production
MMP2
  reduction of MMP2 production: > 95%
MMP2; zymography studies
  total protein concentration (in words): did not vary with MMP values
Articular chondrocytes
  Photons Absorbed at IC50: 1.44 × 10^8 photons/cell
  relative uptake (in words): markedly less than for CASP and PF
  IC50 Uptake: 2.32 fg/cell
Chondrocytes [3]; 72 hours after drug and/or light exposure, light dose not given, read-out: IC50, inhibition of chondrocyte proliferation ([^3 H]-thymidine incorporation)
  IC50: 4.4 µg/mL (≈ 7.37 µM)
Chondrocytes [3]; concentration inhibiting [^3 H]-thymidine incorporation by 50%, read-out: IC50 (Table 2)
  IC50: 4.4 µg/mL (≈ 7.37 µM)

## [Cl][Al]1[n]2c3c4ccccc4c2N=C2N=C(N=c4c5ccccc5c([n]41)=NC1=NC(=N3)c3ccccc31)c1ccccc12 [CASP, chloroaluminum phthalocyanine]
Chondrocytes [1]
  cellular fluorescence intensity (in words): Minimal CASP fluorescence was observed at the drug concentrations studied
Chondrocytes [2]
  toxic response / cellular viability (in words): minimally toxic to articular chondrocytes
Chondrocytes [2]; [5]
  decrease in cellular viability by MTT production (in words): no decrease in cellular viability was observed
Chondrocytes [2]; in the range studied (FIG. 1D)
  saturation of toxicity effects (in words): No saturation effects were observed
Chondrocytes [2]; screening studies of toxicity to determine range of doses
  dose response in screening studies of toxicity (in words): no dose response was seen
MMP2; 3.12 μg/ml, light dose of 10 J/cm^2, no decrease in cell viability
  reduction in MMP2 levels (in words): complete reduction in MMP2 levels
MMP2; CASP parameters tested
  reductions in MMP2 levels (in words): significant reductions in MMP2 levels
MMP2; drug concentrations greater than 0.2 μg/ml, light dose of 10 J/cm^2
  decrease of MMP2 levels: 25%
Articular chondrocytes
  Photons Absorbed at IC50: 1.86 × 10^6 photons/cell
  IC50 Uptake: 64.77 fg/cell
Chondrocytes [3]; 50 μg/ml, highest concentration of CASP investigated
  reduction of [^3 H]-thymidine incorporation: 25%
Chondrocytes [3]; [5]
  decrease by [^3 H]-thymidine incorporation (in words): no decrease in cellular viability was observed
Chondrocytes [3]
  effect on cellular proliferation rates (in words): least toxic
Chondrocytes [3]; [4]
  IC50 (Table 2): > 50 µg/mL
